Test results: US20230085307A1, “PYRIDAZINONE COMPOUND AND HERBICIDE” (NISSAN CHEMICAL CORPORATION, priority 2019, published 2023)

Assays:
barnyard grass [1] = experiment: Test Example 3: herbicidal effect by foliage application, Wagner pot (Table 18, symbol H); format: in vivo, barnyard grass (Echinochloa crus-galli); conditions: 320 g/ha
In short: (§1)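 Plants were sown in alluvial soil held under 0.1–0.5 cm standing water and grown 14 days in a greenhouse at 25–30 °C. An emulsifiable formulation, water-diluted to the set dose, was then sprayed onto the foliage, and effects were scored three weeks later using previously defined criteria.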

Chinese sprangletop = experiment: Test Example 3: herbicidal effect by foliage application, Wagner pot (Table 18, symbol D); format: in vivo, chinese sprangletop (Leptochloa chinensis); conditions: 320 g/ha
In short: as §1

rice flat sedge = experiment: Test Example 3: herbicidal effect by foliage application, Wagner pot (Table 18, symbol E); format: in vivo, rice flat sedge (Cyperus iria); conditions: 320 g/ha
In short: as §1

southern crabgrass [2] = experiment: Test Example 4: herbicidal effect by soil treatment (Table 19, symbol F); format: in vivo, southern crabgrass (Digitaria ciliaris); conditions: amount of applied herbicide 320 g/ha
In short: (§2)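 Three weeks of greenhouse growth at 25° C. to 30° C. followed a uniform surface spray of water-diluted emulsion at a predetermined herbicide amount. Seeds had been sown beforehand under about 1.5 cm of sterilized diluvial soil. Grading followed criteria set out in an earlier test.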

green foxtail [3] = experiment: Test Example 4: herbicidal effect by soil treatment (Table 19, symbol G); format: in vivo, green foxtail (Setaria viridis); conditions: amount of applied herbicide 320 g/ha
In short: as §2

barnyard grass [4] = experiment: Test Example 4: herbicidal effect by soil treatment (Table 19, symbol H); format: in vivo, barnyard grass (Echinochloa crus-galli); conditions: amount of applied herbicide 320 g/ha
In short: as §2

wild oat [5] = experiment: Test Example 4: herbicidal effect by soil treatment (Table 19, symbol I); format: in vivo, wild oat (Avena fatua); conditions: amount of applied herbicide 320 g/ha
In short: as §2

blackgrass [6] = experiment: Test Example 4: herbicidal effect by soil treatment (Table 19, symbol J); format: in vivo, blackgrass (Alopecurus myosuroides); conditions: amount of applied herbicide 320 g/ha
In short: as §2

Italian ryegrass [7] = experiment: Test Example 4: herbicidal effect by soil treatment (Table 19, symbol K); format: in vivo, Italian ryegrass (Lolium multiflorum); conditions: amount of applied herbicide 320 g/ha
In short: as §2

windgrass [8] = experiment: Test Example 4: herbicidal effect by soil treatment (Table 19, symbol L); format: in vivo, windgrass (Apera spica-venti); conditions: amount of applied herbicide 320 g/ha
In short: as §2

velvetleaf [9] = experiment: Test Example 4: herbicidal effect by soil treatment (Table 19, symbol M); format: in vivo, velvetleaf (Abutilon theophrasti); conditions: amount of applied herbicide 320 g/ha
In short: as §2

redroot pigweed [10] = experiment: Test Example 4: herbicidal effect by soil treatment (Table 19, symbol N); format: in vivo, redroot pigweed (Amaranthus retroflexus); conditions: amount of applied herbicide 320 g/ha
In short: as §2

lambsquarters [11] = experiment: Test Example 4: herbicidal effect by soil treatment (Table 19, symbol O); format: in vivo, lambsquarters (Chenopodium album); conditions: amount of applied herbicide 320 g/ha
In short: as §2

chickweed [12] = experiment: Test Example 4: herbicidal effect by soil treatment (Table 19, symbol P); format: in vivo, common chickweed (Stellaria media); conditions: amount of applied herbicide 320 g/ha
In short: as §2

persian speedwell [13] = experiment: Test Example 4: herbicidal effect by soil treatment (Table 19, symbol R); format: in vivo, Persian speedwell (Veronica persica); conditions: amount of applied herbicide 320 g/ha
In short: as §2

southern crabgrass [14] = experiment: Test Example 5: herbicidal effect by foliage application, plastic box (Table 20, symbol F); format: in vivo, southern crabgrass (Digitaria ciliaris); conditions: amount of applied herbicide 320 g/ha; foliage application after 14-day growth; evaluated three weeks after application
In short: (§3)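 Plants sown in sterilized diluvial soil and grown 14 days in a greenhouse at 25° C to 30° C, then sprayed on the foliage with the compound's emulsion diluted in water to a predetermined herbicide amount. Injury to weeds and crops scored three weeks after application on a visual rating scale.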

green foxtail [15] = experiment: Test Example 5: herbicidal effect by foliage application, plastic box (Table 20, symbol G); format: in vivo, green foxtail (Setaria viridis); conditions: amount of applied herbicide 320 g/ha; foliage application after 14-day growth; evaluated three weeks after application
In short: as §3

barnyard grass [16] = experiment: Test Example 5: herbicidal effect by foliage application, plastic box (Table 20, symbol H); format: in vivo, barnyard grass (Echinochloa crus-galli); conditions: amount of applied herbicide 320 g/ha; foliage application after 14-day growth; evaluated three weeks after application
In short: as §3

wild oat [17] = experiment: Test Example 5: herbicidal effect by foliage application, plastic box (Table 20, symbol I); format: in vivo, wild oat (Avena fatua); conditions: amount of applied herbicide 320 g/ha; foliage application after 14-day growth; evaluated three weeks after application
In short: as §3

blackgrass [18] = experiment: Test Example 5: herbicidal effect by foliage application, plastic box (Table 20, symbol J); format: in vivo, blackgrass (Alopecurus myosuroides); conditions: amount of applied herbicide 320 g/ha; foliage application after 14-day growth; evaluated three weeks after application
In short: as §3

Italian ryegrass [19] = experiment: Test Example 5: herbicidal effect by foliage application, plastic box (Table 20, symbol K); format: in vivo, Italian ryegrass (Lolium multiflorum); conditions: amount of applied herbicide 320 g/ha; foliage application after 14-day growth; evaluated three weeks after application
In short: as §3

windgrass [20] = experiment: Test Example 5: herbicidal effect by foliage application, plastic box (Table 20, symbol L); format: in vivo, windgrass (Apera spica-venti); conditions: amount of applied herbicide 320 g/ha; foliage application after 14-day growth; evaluated three weeks after application
In short: as §3

velvetleaf [21] = experiment: Test Example 5: herbicidal effect by foliage application, plastic box (Table 20, symbol M); format: in vivo, velvetleaf (Abutilon theophrasti); conditions: amount of applied herbicide 320 g/ha; foliage application after 14-day growth; evaluated three weeks after application
In short: as §3

redroot pigweed [22] = experiment: Test Example 5: herbicidal effect by foliage application, plastic box (Table 20, symbol N); format: in vivo, redroot pigweed (Amaranthus retroflexus); conditions: amount of applied herbicide 320 g/ha; foliage application after 14-day growth; evaluated three weeks after application
In short: as §3

lambsquarters [23] = experiment: Test Example 5: herbicidal effect by foliage application, plastic box (Table 20, symbol O); format: in vivo, lambsquarters (Chenopodium album); conditions: amount of applied herbicide 320 g/ha; foliage application after 14-day growth; evaluated three weeks after application
In short: as §3

chickweed [24] = experiment: Test Example 5: herbicidal effect by foliage application, plastic box (Table 20, symbol P); format: in vivo, common chickweed (Stellaria media); conditions: amount of applied herbicide 320 g/ha; foliage application after 14-day growth; evaluated three weeks after application
In short: as §3

persian speedwell [25] = experiment: Test Example 5: herbicidal effect by foliage application, plastic box (Table 20, symbol R); format: in vivo, Persian speedwell (Veronica persica); conditions: amount of applied herbicide 320 g/ha; foliage application after 14-day growth; evaluated three weeks after application
In short: as §3

Structure (SMILES) | herbicidal effect on barnyard grass (H) (barnyard grass [1]) | herbicidal effect on Chinese sprangletop (D) (Chinese sprangletop) | herbicidal effect on rice flat sedge (E) (rice flat sedge) | Herbicidal effect by foliage application, F: southern crabgrass (southern crabgrass [14]) | Herbicidal effect by foliage application, G: green foxtail (green foxtail [15]) | Herbicidal effect by foliage application, H: barnyard grass (barnyard grass [16]) | Herbicidal effect by foliage application, I: wild oat (wild oat [17]) | Herbicidal effect by foliage application, J: blackgrass (blackgrass [18]) | Herbicidal effect by foliage application, K: Italian ryegrass (Italian ryegrass [19]) | Herbicidal effect by foliage application, L: windgrass (windgrass [20]) | Herbicidal effect by foliage application, M: velvetleaf (velvetleaf [21]) | Herbicidal effect by foliage application, N: redroot pigweed (redroot pigweed [22]) | Herbicidal effect by foliage application, O: lambsquarters (lambsquarters [23]) | Herbicidal effect by foliage application, P: chickweed (chickweed [24]) | Herbicidal effect by foliage application, R: persian speedwell (persian speedwell [25]) | other results
COc1cccc(-c2sc3c(C)cccc3c2-c2c(O)c(C)nn(C)c2=O)c1 [4-108] | 4 (Herbicidal rate of 70% or more and less than 90%) | 0 (Herbicidal rate of 5% or less (almost no effect)) | 5 (Herbicidal rate of 90% or more (almost completely withered)) | 3 (Herbicidal rate of 40% or more and less than 70%) | 3 (Herbicidal rate of 40% or more and less than 70%) | 2 (Herbicidal rate of 20% or more and less than 40%) | 0 (Herbicidal rate of 5% or less (almost no effect)) | 4 (Herbicidal rate of 70% or more and less than 90%) | 5 (Herbicidal rate of 90% or more (almost completely withered)) | 0 (Herbicidal rate of 5% or less (almost no effect)) | 4 (Herbicidal rate of 70% or more and less than 90%) | 4 (Herbicidal rate of 70% or more and less than 90%) | 4 (Herbicidal rate of 70% or more and less than 90%) | 5 (Herbicidal rate of 90% or more (almost completely withered)) | 5 (Herbicidal rate of 90% or more (almost completely withered)) | Herbicidal effect by soil treatment, F: southern crabgrass (southern crabgrass [2]): 2 (Herbicidal rate of 20% or more and less than 40%); Herbicidal effect by soil treatment, G: green foxtail (green foxtail [3]): 0 (Herbicidal rate of 5% or less (almost no effect)); Herbicidal effect by soil treatment, H: barnyard grass (barnyard grass [4]): 0 (Herbicidal rate of 5% or less (almost no effect)); Herbicidal effect by soil treatment, I: wild oat (wild oat [5]): 0 (Herbicidal rate of 5% or less (almost no effect)); Herbicidal effect by soil treatment, J: blackgrass (blackgrass [6]): 2 (Herbicidal rate of 20% or more and less than 40%); Herbicidal effect by soil treatment, K: Italian ryegrass (Italian ryegrass [7]): 1 (Herbicidal rate of 5% or more and less than 20%); Herbicidal effect by soil treatment, L: windgrass (windgrass [8]): 0 (Herbicidal rate of 5% or less (almost no effect)); Herbicidal effect by soil treatment, M: velvetleaf (velvetleaf [9]): 3 (Herbicidal rate of 40% or more and less than 70%); Herbicidal effect by soil treatment, N: redroot pigweed (redroot pigweed [10]): 5 (Herbicidal rate of 90% or more (almost completely withered)); Herbicidal effect by soil treatment, O: lambsquarters (lambsquarters [11]): 4 (Herbicidal rate of 70% or more and less than 90%); Herbicidal effect by soil treatment, P: chickweed (chickweed [12]): 1 (Herbicidal rate of 5% or more and less than 20%); Herbicidal effect by soil treatment, R: persian speedwell (persian speedwell [13]): 3 (Herbicidal rate of 40% or more and less than 70%)
COc1ccc(-c2sc3cc(F)c(F)cc3c2-c2c(O)c(C)nn(C)c2=O)cc1OC [5-033] | 4 (Herbicidal rate of 70% or more and less than 90%) | 3 (Herbicidal rate of 40% or more and less than 70%) | 4 (Herbicidal rate of 70% or more and less than 90%) | 1 (Herbicidal rate of 5% or more and less than 20%) | 4 (Herbicidal rate of 70% or more and less than 90%) | 3 (Herbicidal rate of 40% or more and less than 70%) | 0 (Herbicidal rate of 5% or less (almost no effect)) | 0 (Herbicidal rate of 5% or less (almost no effect)) | 4 (Herbicidal rate of 70% or more and less than 90%) | 0 (Herbicidal rate of 5% or less (almost no effect)) | 4 (Herbicidal rate of 70% or more and less than 90%) | 3 (Herbicidal rate of 40% or more and less than 70%) | 4 (Herbicidal rate of 70% or more and less than 90%) | 5 (Herbicidal rate of 90% or more (almost completely withered)) | 5 (Herbicidal rate of 90% or more (almost completely withered)) | F: southern crabgrass, herbicidal effect grade (southern crabgrass [2]): 3 (Herbicidal rate of 40% or more and less than 70%); G: green foxtail, herbicidal effect grade (green foxtail [3]): 3 (Herbicidal rate of 40% or more and less than 70%); H: barnyard grass, herbicidal effect grade (barnyard grass [4]): 3 (Herbicidal rate of 40% or more and less than 70%); I: wild oat, herbicidal effect grade (wild oat [5]): 0 (Herbicidal rate of 5% or less (almost no effect)); J: blackgrass, herbicidal effect grade (blackgrass [6]): 0 (Herbicidal rate of 5% or less (almost no effect)); K: Italian ryegrass, herbicidal effect grade (Italian ryegrass [7]): 0 (Herbicidal rate of 5% or less (almost no effect)); L: windgrass, herbicidal effect grade (windgrass [8]): 0 (Herbicidal rate of 5% or less (almost no effect)); M: velvetleaf, herbicidal effect grade (velvetleaf [9]): 0 (Herbicidal rate of 5% or less (almost no effect)); N: redroot pigweed, herbicidal effect grade (redroot pigweed [10]): 3 (Herbicidal rate of 40% or more and less than 70%); O: lambsquarters, herbicidal effect grade (lambsquarters [11]): 4 (Herbicidal rate of 70% or more and less than 90%); P: chickweed, herbicidal effect grade (chickweed [12]): 1 (Herbicidal rate of 5% or more and less than 20%); R: persian speedwell, herbicidal effect grade (persian speedwell [13]): 0 (Herbicidal rate of 5% or less (almost no effect))
